Tests used:
Experiment in all cases: relative viability (nuclei count vs DMSO), 5 days (fraction); higher = more cells survive
Doxorubicin + OSI-027 = compound: COc1cccc2c1C(=O)c1c(O)c3c(c(O)c1C2=O)C[C@@](O)(C(=O)CO)C[C@@H]3O[C@H]1C[C@H](N)[C@H](O)[C@H](C)O1 [Doxorubicin] + COc1cccc2cc(-c3nc([C@H]4CC[C@H](C(=O)O)CC4)n4ncnc(N)c34)[nH]c12 [OSI-027] (partner 0.5 µM)
Outline: (§1)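 Lung cancer cell lines in 1536-well plates got either a single drug or a fixed anchor-drug dose together with five library-drug doses (not always all listed) in √10 steps, by pin tool, on the day after seeding. Nuclei were counted after 5 days, and relative viability is the treated-to-vehicle ratio of nuclei counts. Values are medians of duplicate plates.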

Doxorubicin + Linsitinib = compound: COc1cccc2c1C(=O)c1c(O)c3c(c(O)c1C2=O)C[C@@](O)(C(=O)CO)C[C@@H]3O[C@H]1C[C@H](N)[C@H](O)[C@H](C)O1 [Doxorubicin] + C[C@]1(O)C[C@@H](c2nc(-c3ccc4ccc(-c5ccccc5)nc4c3)c3c(N)nccn32)C1 [Linsitinib] (partner 1 µM)
Outline: as §1

Doxorubicin + Alpelisib = compound: COc1cccc2c1C(=O)c1c(O)c3c(c(O)c1C2=O)C[C@@](O)(C(=O)CO)C[C@@H]3O[C@H]1C[C@H](N)[C@H](O)[C@H](C)O1 [Doxorubicin] + Cc1nc(NC(=O)N2CCC[C@H]2C(N)=O)sc1-c1ccnc(C(C)(C)C(F)(F)F)c1 [Alpelisib] (partner 2 µM)
Outline: as §1

Doxorubicin + Vorinostat = compound: COc1cccc2c1C(=O)c1c(O)c3c(c(O)c1C2=O)C[C@@](O)(C(=O)CO)C[C@@H]3O[C@H]1C[C@H](N)[C@H](O)[C@H](C)O1 [Doxorubicin] + O=C(CCCCCCC(=O)Nc1ccccc1)NO [Vorinostat] (partner 1 µM)
Outline: as §1

Row | Cell Line | relative viability (Doxorubicin + OSI-027; first compound 0.001 µM) | relative viability (Doxorubicin + OSI-027; first compound 0.003162 µM) | relative viability (Doxorubicin + OSI-027; first compound 0.01 µM) | relative viability (Doxorubicin + OSI-027; first compound 0.03162 µM) | relative viability (Doxorubicin + OSI-027; first compound 0.1 µM) | relative viability (Doxorubicin + Linsitinib; first compound 0.001 µM) | relative viability (Doxorubicin + Linsitinib; first compound 0.003162 µM) | relative viability (Doxorubicin + Linsitinib; first compound 0.01 µM) | relative viability (Doxorubicin + Linsitinib; first compound 0.03162 µM) | relative viability (Doxorubicin + Linsitinib; first compound 0.1 µM) | relative viability (Doxorubicin + Alpelisib; first compound 0.001 µM) | relative viability (Doxorubicin + Alpelisib; first compound 0.003162 µM) | relative viability (Doxorubicin + Alpelisib; first compound 0.01 µM) | relative viability (Doxorubicin + Alpelisib; first compound 0.03162 µM) | relative viability (Doxorubicin + Alpelisib; first compound 0.1 µM) | relative viability (Doxorubicin + Vorinostat; first compound 0.001 µM) | relative viability (Doxorubicin + Vorinostat; first compound 0.003162 µM) | relative viability (Doxorubicin + Vorinostat; first compound 0.01 µM) | relative viability (Doxorubicin + Vorinostat; first compound 0.03162 µM) | relative viability (Doxorubicin + Vorinostat; first compound 0.1 µM)
1 | NCI-H520 | 0.249 | 0.274 | 0.233 | 0.193 | 0.202 | 0.888 | 0.986 | 0.826 | 0.698 | 0.73 | 0.903 | 1.05 | 0.858 | 0.732 | 0.738 | 0.757 | 0.733 | 0.788 | 0.596 | 0.564
2 | SW 1573 | 0.527 | 0.513 | 0.316 | 0.125 | 0.103 | 0.669 | 0.831 | 0.858 | 0.586 | 0.529 | 0.904 | 0.731 | 0.641 | 0.447 | 0.428 | 0.725 | 0.481 | 0.233 | 0.109 | 0.104
3 | HARA | 0.454 | 0.543 | 0.569 | 0.509 | 0.473 | 0.974 | 1.03 | 0.922 | 0.798 | 1.04 | 0.816 | 0.845 | 0.76 | 0.782 | 0.812 | 0.593 | 0.482 | 0.547 | 0.589 | 0.432
4 | NCI-H2126 | 0.538 | 0.701 | 0.642 | 0.662 | 0.651 | 0.704 | 0.748 | 0.739 | 0.712 | 0.718 | 0.743 | 0.775 | 0.755 | 0.711 | 0.796 | 0.725 | 0.839 | 0.8 | 0.751 | 0.799
5 | NCI-H1915 | 0.532 | 0.674 | 0.667 | 0.628 | 0.659 | 1.14 | 1.03 | 1.08 | 1.05 | 1.1 | 0.98 | 1.05 | 1.1 | 1.05 | 1.12 | 0.521 | 0.57 | 0.532 | 0.5 | 0.527
6 | PC-14 | 0.683 | 1.14 | 0.865 | 0.161 | 0.0612 | 0.924 | 0.982 | 0.959 | 0.922 | 0.948 | 0.892 | 1.01 | 0.963 | 0.986 | 1.01 | 0.655 | 0.781 | 0.709 | 0.182 | 0.0946
7 | COR-L23 | 0.753 | 0.912 | 0.741 | 0.452 | 0.193 | 0.881 | 1.08 | 0.908 | 0.331 | 0.18 | 0.826 | 0.806 | 0.866 | 0.428 | 0.128 | 0.48 | 0.395 | 0.356 | 0.252 | 0.157
8 | COR-L 105 | 0.71 | 0.623 | 0.556 | 0.428 | 0.34 | 1.05 | 1.04 | 0.955 | 0.557 | 0.433 | 0.967 | 1.13 | 0.928 | 0.551 | 0.312 | 0.707 | 0.788 | 0.773 | 0.559 | 0.434
9 | LK-2 | 0.175 | 0.191 | 0.244 | 0.187 | 0.199 | 0.524 | 0.742 | 0.409 | 0.483 | 0.627 | 0.521 | 0.642 | 0.947 | 0.868 | 0.85 | 0.318 | 0.311 | 0.266 | 0.23 | 0.307
10 | 201T | 0.494 | 0.838 | 0.724 | 0.638 | 0.274 | 1 | 0.979 | 0.983 | 1.06 | 1.01 | 1.02 | 0.969 | 0.985 | 0.969 | 1.02 | 0.892 | 0.996 | 0.96 | 1.06 | 0.942
11 | HCC-78 | 0.433 | 0.384 | 0.329 | 0.354 | 0.318 | 0.539 | 0.454 | 0.493 | 0.491 | 0.47 | 0.374 | 0.269 | 0.548 | 0.298 | 0.312 | 0.445 | 0.481 | 0.407 | 0.51 | 0.414
12 | NCI-H727 | 0.483 | 0.713 | 0.531 | 0.631 | 0.556 | 0.275 | 0.323 | 0.304 | 0.251 | 0.455 | 0.45 | 0.617 | 0.55 | 0.469 | 0.705 | 1.33 | 1.09 | – | 1.13 | 1.19
13 | H3255 | 0.641 | 0.517 | 0.629 | 0.581 | 0.594 | 0.906 | 1.07 | 0.908 | 0.9 | 0.938 | 0.698 | 0.656 | 0.562 | 0.58 | 0.404 | – | 0.913 | 0.698 | 0.88 | 0.428
14 | NCI-H838 | 0.421 | 0.429 | 0.387 | 0.39 | 0.328 | 1.04 | 1.04 | 0.952 | 0.906 | 0.446 | 1 | 1.05 | 0.979 | 0.919 | 0.461 | 0.783 | 0.737 | 0.714 | 0.544 | 0.435
15 | NCI-H2085 | 0.786 | 0.784 | 0.667 | 0.679 | 0.589 | 1.03 | 0.927 | 0.815 | 0.716 | 0.82 | 0.936 | 1 | 0.992 | 0.739 | 0.686 | 0.725 | 0.779 | 0.807 | 0.82 | 0.618
16 | NCI-H2405 | 0.607 | 0.645 | 0.654 | 0.629 | 0.509 | – | 0.938 | 0.887 | 0.707 | 0.519 | – | 0.728 | 0.82 | 0.663 | 0.406 | 1.2 | 1.17 | 0.971 | 0.804 | 0.323

Reference: the supplement of paper PMC10307832
